Results published in ChEMBL document CHEMBL3885881, “DrugMatrix”.

Organism: Rattus norvegicus
Assay: DrugMatrix - Regimen: Daily Repeat
Format: toxicity, organism-based, Sprague-Dawley
Parameters: regimen Daily Repeat, gender Male, age 6-8 weeks
Conditions: in vivo, po, route oral GAVAGE; for ABSOLUTE BASOPHIL / ABSOLUTE EOSINOPHIL / ABSOLUTE LYMPHOCYTE / ABSOLUTE MONOCYTE / ABSOLUTE SEGMENTED NEUTROPHIL / BASOPHIL / EOSINOPHIL / ERYTHROCYTE COUNT / HEMATOCRIT / HEMOGLOBIN / LEUKOCYTE COUNT / LYMPHOCYTE / MEAN CORPUSCULAR HEMOGLOBIN / MEAN CORPUSCULAR HEMOGLOBIN CONCENTRATION / MEAN CORPUSCULAR VOLUME / MONOCYTE / NEUTROPHIL / NUCLEATED RED BLOOD CELLS / PLATELET COUNT: tissue Blood; for ALANINE AMINOTRANSFERASE / ALBUMIN / ALKALINE PHOSPHATASE / ASPARTATE AMINOTRANSFERASE / BLOOD UREA NITROGEN / CARBON DIOXIDE / CHLORIDE / CHOLESTEROL / CREATINE PHOSPHOKINASE / CREATININE / LACTATE DEHYDROGENASE / LIPASE / PHOSPHORUS / POTASSIUM / SODIUM / TOTAL BILIRUBIN / TOTAL PROTEIN / URIC ACID / GLUCOSE: tissue Plasma
[1] = 70 mg/kg, 72 h, dose level Low, time 3 day, vehicle 100 % WATER
[2] = 70 mg/kg, 120 h, dose level Low, time 5 day, vehicle 100 % WATER
[3] = 400 mg/kg, 72 h, dose level High, time 3 day, […]
[4] = 400 mg/kg, 120 h, dose level High, time 5 day, […]

In the case of `CN(C)CCCN1c2ccccc2CCc2ccc(Cl)cc21` [CLOMIPRAMINE], the “ABSOLUTE BASOPHIL” value [1] is reported as 0 CELLS/uL, the “ABSOLUTE EOSINOPHIL” value [1] is reported as 0 CELLS/uL and the “ABSOLUTE LYMPHOCYTE” value [1] is reported as 11511.33 CELLS/uL. For the same compound, the “ABSOLUTE MONOCYTE” value [1] was 50 CELLS/uL, the “ABSOLUTE SEGMENTED NEUTROPHIL” value [1] was 672 CELLS/uL and the BASOPHIL [1] was 0%. For the same compound, the EOSINOPHIL [1] was 0%, the “ERYTHROCYTE COUNT” value [1] was 5.82 x10E6/uL and the HEMATOCRIT [1] was 36.17%. For the same compound, the HEMOGLOBIN [1] was 14.27 G/DL, the “LEUKOCYTE COUNT” value [1] was 12.23 x10E3/uL and the LYMPHOCYTE [1] was 94%. The “MEAN CORPUSCULAR HEMOGLOBIN” value [1] was 24.53 pg, the “MEAN CORPUSCULAR HEMOGLOBIN CONCENTRATION” value [1] was 39.47 G/DL and the “MEAN CORPUSCULAR VOLUME” value [1] was 62.17 fL. For the same compound, the MONOCYTE [1] was 0.33%, the NEUTROPHIL [1] was 5.67% and the “NUCLEATED RED BLOOD CELLS” value [1] was 0.33 /100WBC. The “ALANINE AMINOTRANSFERASE” value [1] was 52.33 u/L, the ALBUMIN [1] was 4.17 G/DL and the “ALKALINE PHOSPHATASE” value [1] was 458.67 u/L. The “ASPARTATE AMINOTRANSFERASE” value [1] was 99 u/L, the “BLOOD UREA NITROGEN” value [1] was 15.67 mg/dL and the “CARBON DIOXIDE” value [1] was 24.67 mmol/L. For the same compound, the CHLORIDE [1] was 101 MEQ/L, the CHOLESTEROL [1] was 73 mg/dL and the “CREATINE PHOSPHOKINASE” value [1] was 853.67 u/L. The CREATININE [1] was 0.22 mg/dL, the “LACTATE DEHYDROGENASE” value [1] was 317.67 u/L and the LIPASE [1] was 9 u/L. It also gave a PHOSPHORUS [1] of 13.47 mg/dL, a POTASSIUM [1] of 6.22 MEQ/L and an SODIUM [1] of 146.57 MEQ/L. The “TOTAL BILIRUBIN” value [1] was 0.27 mg/dL, the “TOTAL PROTEIN” value [1] was 6.07 G/DL and the “URIC ACID” value [1] was 1.93 mg/dL. The “ABSOLUTE BASOPHIL” value [2] was 0 CELLS/uL, the “ABSOLUTE EOSINOPHIL” value [2] was 39.67 CELLS/uL and the “ABSOLUTE LYMPHOCYTE” value [2] was 12212 CELLS/uL. For the same compound, the “ABSOLUTE MONOCYTE” value [2] was 206.67 CELLS/uL, the “ABSOLUTE SEGMENTED NEUTROPHIL” value [2] was 1075 CELLS/uL and the BASOPHIL [2] was 0%. The EOSINOPHIL [2] was 0.33%, the “ERYTHROCYTE COUNT” value [2] was 6.52 x10E6/uL and the HEMATOCRIT [2] was 41.7%. The HEMOGLOBIN [2] was 15.97 G/DL, the “LEUKOCYTE COUNT” value [2] was 13.53 x10E3/uL and the LYMPHOCYTE [2] was 90.33%. The “MEAN CORPUSCULAR HEMOGLOBIN” value [2] was 24.53 pg, the “MEAN CORPUSCULAR HEMOGLOBIN CONCENTRATION” value [2] was 38.27 G/DL and the “MEAN CORPUSCULAR VOLUME” value [2] was 64.07 fL. The MONOCYTE [2] was 1.33%, the NEUTROPHIL [2] was 8% and the “NUCLEATED RED BLOOD CELLS” value [2] was 1 /100WBC. The “ALANINE AMINOTRANSFERASE” value [2] was 54 u/L, the ALBUMIN [2] was 4.67 G/DL and the “ALKALINE PHOSPHATASE” value [2] was 417.67 u/L. The “ASPARTATE AMINOTRANSFERASE” value [2] was 75.33 u/L, the “BLOOD UREA NITROGEN” value [2] was 13.33 mg/dL and the “CARBON DIOXIDE” value [2] was 27.67 mmol/L. The CHLORIDE [2] was 100.33 MEQ/L, the CHOLESTEROL [2] was 74 mg/dL and the “CREATINE PHOSPHOKINASE” value [2] was 213 u/L. The CREATININE [2] was 0.2 mg/dL, the “LACTATE DEHYDROGENASE” value [2] was 196.67 u/L and the LIPASE [2] was 8.67 u/L. It also gave a PHOSPHORUS [2] of 12.07 mg/dL, a POTASSIUM [2] of 6.7 MEQ/L and an SODIUM [2] of 146.33 MEQ/L. The “TOTAL BILIRUBIN” value [2] was 0.2 mg/dL, the “TOTAL PROTEIN” value [2] was 6.57 G/DL and the “URIC ACID” value [2] was 1.57 mg/dL.
For `COC(=O)[C@H](c1ccccc1Cl)N1CCc2sccc2C1` [CLOPIDOGREL], the “ABSOLUTE BASOPHIL” value [3] was 0 CELLS/uL, the “ABSOLUTE EOSINOPHIL” value [3] was 86.67 CELLS/uL and the “ABSOLUTE LYMPHOCYTE” value [3] was 12550.67 CELLS/uL. The “ABSOLUTE MONOCYTE” value [3] was 229.67 CELLS/uL, the “ABSOLUTE SEGMENTED NEUTROPHIL” value [3] was 1366.33 CELLS/uL and the BASOPHIL [3] was 0%. For the same compound, the EOSINOPHIL [3] was 0.67%, the “ERYTHROCYTE COUNT” value [3] was 5.22 x10E6/uL and the HEMATOCRIT [3] was 31.7%. The HEMOGLOBIN [3] was 12.8 G/DL, the “LEUKOCYTE COUNT” value [3] was 14.23 x10E3/uL and the LYMPHOCYTE [3] was 88%. The “MEAN CORPUSCULAR HEMOGLOBIN” value [3] was 24.5 pg, the “MEAN CORPUSCULAR HEMOGLOBIN CONCENTRATION” value [3] was 40.4 G/DL and the “MEAN CORPUSCULAR VOLUME” value [3] was 60.77 fL. The MONOCYTE [3] was 1.67%, the NEUTROPHIL [3] was 9.67% and the “NUCLEATED RED BLOOD CELLS” value [3] was 0 /100WBC. For the same compound, the “PLATELET COUNT” value [3] was 1169.33 x10E3/uL, the “ALANINE AMINOTRANSFERASE” value [3] was 98.67 u/L and the ALBUMIN [3] was 3.97 G/DL. For the same compound, the “ALKALINE PHOSPHATASE” value [3] was 463 u/L, the “ASPARTATE AMINOTRANSFERASE” value [3] was 113 u/L and the “BLOOD UREA NITROGEN” value [3] was 13.67 mg/dL. For the same compound, the “CARBON DIOXIDE” value [3] was 27.67 mmol/L, the CHLORIDE [3] was 102.67 MEQ/L and the CHOLESTEROL [3] was 80 mg/dL. The “CREATINE PHOSPHOKINASE” value [3] was 460.67 u/L, the CREATININE [3] was 0.21 mg/dL and the GLUCOSE [3] was 145 mg/dL. For the same compound, the “LACTATE DEHYDROGENASE” value [3] was 361 u/L, the LIPASE [3] was 14.33 u/L and the PHOSPHORUS [3] was 10.53 mg/dL. The POTASSIUM [3] was 6.16 MEQ/L, the SODIUM [3] was 141.23 MEQ/L and the “TOTAL BILIRUBIN” value [3] was 0.23 mg/dL. The “TOTAL PROTEIN” value [3] was 5.47 G/DL, the “URIC ACID” value [3] was 1.13 mg/dL and the “ABSOLUTE BASOPHIL” value [4] was 0 CELLS/uL. The “ABSOLUTE EOSINOPHIL” value [4] was 131.33 CELLS/uL, the “ABSOLUTE LYMPHOCYTE” value [4] was 15650.33 CELLS/uL and the “ABSOLUTE MONOCYTE” value [4] was 297.33 CELLS/uL. For the same compound, the “ABSOLUTE SEGMENTED NEUTROPHIL” value [4] was 2887.67 CELLS/uL, the BASOPHIL [4] was 0% and the EOSINOPHIL [4] was 0.67%. The “ERYTHROCYTE COUNT” value [4] was 5.21 x10E6/uL, the HEMATOCRIT [4] was 31.5% and the HEMOGLOBIN [4] was 12.6 G/DL. For the same compound, the “LEUKOCYTE COUNT” value [4] was 18.97 x10E3/uL, the LYMPHOCYTE [4] was 84% and the “MEAN CORPUSCULAR HEMOGLOBIN” value [4] was 24.17 pg. For the same compound, the “MEAN CORPUSCULAR HEMOGLOBIN CONCENTRATION” value [4] was 40 G/DL, the “MEAN CORPUSCULAR VOLUME” value [4] was 60.37 fL and the MONOCYTE [4] was 1.67%. For the same compound, the NEUTROPHIL [4] was 13.67%, the “NUCLEATED RED BLOOD CELLS” value [4] was 0 /100WBC and the “PLATELET COUNT” value [4] was 1167.67 x10E3/uL. For the same compound, the “ALANINE AMINOTRANSFERASE” value [4] was 76 u/L, the ALBUMIN [4] was 3.8 G/DL and the “ALKALINE PHOSPHATASE” value [4] was 362.67 u/L. For the same compound, the “ASPARTATE AMINOTRANSFERASE” value [4] was 110.67 u/L, the “BLOOD UREA NITROGEN” value [4] was 16.33 mg/dL and the “CARBON DIOXIDE” value [4] was 26 mmol/L. For the same compound, the CHLORIDE [4] was 101 MEQ/L, the CHOLESTEROL [4] was 86.67 mg/dL and the “CREATINE PHOSPHOKINASE” value [4] was 941 u/L. The CREATININE [4] was 0.15 mg/dL, the GLUCOSE [4] was 135 mg/dL and the “LACTATE DEHYDROGENASE” value [4] was 452.33 u/L. For the same compound, the LIPASE [4] was 12.33 u/L, the PHOSPHORUS [4] was 12.5 mg/dL and the POTASSIUM [4] was 5.63 MEQ/L. The SODIUM [4] was 141.87 MEQ/L, the “TOTAL BILIRUBIN” value [4] was 0.2 mg/dL and the “TOTAL PROTEIN” value [4] was 5.4 G/DL. For the same compound, the “URIC ACID” value [4] was 1.1 mg/dL.
